The assay addresses α-chymotrypsinogen A (aCgn) (Bos taurus, UniProt P00766). As to the kind of experiment: Preferential interaction with aCgn by vapor pressure osmometry (VPO). The format is physicochemical, Bovine. As to conditions: for Γ23/[3] preferential interaction with aCgn: 50 mg/mL aCgn, 20 mM sodium citrate pH 5, maximum dendrimer 0.2 mol/L; for Γexp preferential interaction coefficient of aCgn: 0.17-[…] dendrimer salt, VPO. The procedure: Osmolality measurements were carried out according to the previously described procedure. For improved accuracy, all samples were prepared gravimetrically using a Mettler Toledo balance with a precision of 0.1 mg. Partial molar volume values of the
Stock solutions of both BSA and lysozyme and stock solutions of the cosolutes were each prepared in a 40 mM sodium phosphate buffer, pH 6.0 (aCgn measurements were conducted in 20 mM sodium citrate buffer, pH 3.5 or pH 5.0). Stock solutions of the cosolutes were used so that a series of samples could be easily produced with varying solute concentrations by dilution with water and buffer. The protein stock solutions were further purified by placing the solutions under dialysis for 48 hours at room temperature against two changes of buffer (1 L each). […] To determine the concentration, samples of each stock solution were diluted gravimetrically with water to a final optical density of about 1.0 and the concentration determined spectrophotometrically with a PerkinElmer Lambda 35 UV/Vis spectrometer. It should be noted that the protein stock solutions were stored at 4° C. and used within one week of their preparation.
[formula] A Wescor Vapro® vapor pressure osmometer (model 5520) was used for all osmometry measurements. The instrument was calibrated using 0.1, 0.29, and 1 mol/kg osmolality standards provided by Wescor. Due to slight drifts in the calibration points, the instrument was recalibrated after every four measurements and the thermocouple was cleaned daily using concentrated ammonium hydroxide followed by a rinse with HPLC grade water. […] The data sets for each cosolute included at least 16 individually made solutions (both for the sets with and without the protein). Each sample contained approximately 80 μL of solution (40 μL of diluted cosolute stock solution and 40 μL of the protein stock solution). A minimum of three measurements on each solution were made. If the standard deviation for a particular solution was greater than 2 mmol/kg, more measurements were taken or another sample was prepared. For a given solute, data representing the dependence of osmolality on solute molality were fitted by a quadratic equation, with all fitting parameters floated. Data were weighted by the standard deviation of the individual osmolality measurements for the same solution using the nonlinear fitting program Igor Pro.
To gain further insight into how the modified dendrimer salts inhibit protein-protein interactions, preferential interaction coefficient (Γ23) values at various concentrations were determined, both experimentally via vapor pressure osmometry (VPO) measurements and computationally via MD simulations. The experimental results for the interaction between modified generation 0 PAMAM dendrimers and aCgn are expressed in Table 2, which summarizes the polynomial fit and uncertainty of the experimental data. Theoretical preferential interaction coefficient values were computed from the MD simulation using the procedure outlined in our previous work. Baynes B M and Trout B L (2003) J Phys Chem B 107:14058-14067; Shukla D et al. (2009) J Phys Chem B 113:12546-12554.

The text below walks through data of patent publication US9410142B2, “Dendrimer-based excipients for the attenuation of protein aggregation” (Massachusetts Institute of Technology, priority 2010, dated 2016).

The structures appear in SMILES notation.

Turning to `N=C(N)NCCNC(=O)CCN(CCC(=O)NCCNC(=N)N)CCN(CCC(=O)NCCNC(=N)N)CCC(=O)NCCNC(=N)N.O=P(O)(O)O.O=P(O)(O)O.O=P(O)(O)O.O=P(O)(O)O.O=P(O)(O)O.O=P(O)(O)O` [Gdm(H2PO4)], the “Γ23/[3] preferential interaction with aCgn” value is −15.8 ± 5.0 mol/mol and the “Γexp preferential interaction coefficient of aCgn” value is given as −2.9.
The like results for `N=C(N)NCCNC(=O)CCN(CCC(=O)NCCNC(=N)N)CCN(CCC(=O)NCCNC(=N)N)CCC(=O)NCCNC(=N)N.O=S(=O)(O)O.O=S(=O)(O)O.O=S(=O)(O)O` [Gdm(SO4)1/2] were, in that order, −17.0 ± 4.4 mol/mol and −3.1.
